According to patent publication US8697911B2, “Rho kinase inhibitors” (Boehringer Ingelheim International GmbH, priority 2010, dated 2014):

Columns and labels:
ROCKII (1-543) [1] = target: T1, ROCKII (1-543) (Homo sapiens (Human), UniProt O75116); assay: Luciferin-Luciferase Assay (Assay 1); assay type: biochemical; conditions: luciferin-luciferase residual ATP; 750 nM ATP, 7.5 nM kinase
Description: 1. Luciferin-Luciferase Assay
The activity of ROCKII (1-543) kinase is measured utilizing Cambrex PKLight ATP Detection Reagent, a homogeneous assay technology using luciferin-luciferase to quantify residual ATP. The assay is performed in 384-well low-volume, white, non-binding surface microtiter plates (Corning). The assay buffer is 25 mM HEPES, pH 7.5, 10 mM MgCl2, 50 mM KCl, 0.2% BSA, 0.01% CHAPS, 100 μM Na3VO4 and 0.5 mM DTT. Test compounds, dissolved in neat DMSO at 500 μg/mL, are serially diluted for dose response for a final starting concentration of 3 μg/mL in 1% DMSO of assay buffer. ROCKII (1-543) (62,408 Da) is diluted in assay buffer to a final concentration of 7.5 nM in a total volume of 15 μL. Positive controls are reaction mixtures containing no test compound; negative controls (blanks) are reaction mixtures containing no kinase. After 15 minutes of pre-incubation of the test compounds with the kinase, a mixture of ATP and peptide substrate ([…]) in assay buffer is added to each well for a final concentration of 750 nM ATP and 500 nM peptide, respectively. After 90 minutes of incubation of the kinase reaction at 28° C. temperature, 10 μL of PKLight ATP Detection Reagent (warmed to room temperature previously) is added to each well. The assay plate is incubated at room temperature for additional 15 minutes and then read on an Analyst in luminescence mode. Dose-response experiments for each of the test compounds are conducted in quadruplet. IC50 values of test compounds represent 50% response of the positive control from the dose-response curve.
Target sequence in this assay (O75116 1-543): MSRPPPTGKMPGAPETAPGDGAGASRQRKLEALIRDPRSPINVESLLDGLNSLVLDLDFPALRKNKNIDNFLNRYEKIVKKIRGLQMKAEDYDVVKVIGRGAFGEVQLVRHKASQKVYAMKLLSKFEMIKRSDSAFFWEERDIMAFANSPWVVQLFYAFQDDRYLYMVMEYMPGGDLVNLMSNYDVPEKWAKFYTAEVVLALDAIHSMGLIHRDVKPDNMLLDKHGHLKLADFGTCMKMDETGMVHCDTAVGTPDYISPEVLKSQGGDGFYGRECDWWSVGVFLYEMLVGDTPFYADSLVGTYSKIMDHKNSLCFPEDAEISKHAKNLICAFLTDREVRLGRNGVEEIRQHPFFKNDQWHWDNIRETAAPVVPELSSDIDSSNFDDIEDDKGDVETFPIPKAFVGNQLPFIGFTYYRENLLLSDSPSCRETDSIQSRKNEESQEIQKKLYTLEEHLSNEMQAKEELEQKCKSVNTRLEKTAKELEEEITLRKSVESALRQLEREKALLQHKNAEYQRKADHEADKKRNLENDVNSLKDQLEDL

ROCKII (1-543) [2] = target: T1, ROCKII (1-543); assay: IMAP Assay (Assay 2); assay type: biochemical; conditions: IMAP fluorescence polarization; 100 μM ATP, 1 nM kinase
Description: This assay is performed using FAM S6 substrate peptide (Catalogue #R7184) and IMAP FP Screening Express Kit detection reagents from Molecular Devices (Sunnyvale, Calif.) in IMAP kinase reaction buffer (Tris-HCl, pH 7.2, 10 mM MgCl2, 0.05% NaN3, 0.1% phosphate-free BSA) containing 1 mM DTT. Test compounds dissolved in neat DMSO at 0.3 mg/mL are serially diluted 1 to 3 for concentration response in 100% DMSO. The DMSO serial dilutions are further diluted 33.33-fold in kinase reaction buffer, and 10 μL of this buffer dilution is transferred to Corning black 96-well half area NBS plates for a final top concentration of 3 μg/mL in 1% DMSO. 10 μL aliquot of 3 nM ROCKII (1-543) diluted in kinase reaction buffer is added to each assay well for a final concentration of 1 nM kinase. 10 μL of a mixture of 600 nM FAM S6 peptide and 300 μM ATP diluted in kinase reaction buffer is added to each well for a final concentration of 200 nM peptide and 100 μM ATP. The kinase reaction mixture is incubated for 60 minutes at room temperature. Positive controls are reaction mixtures containing no test compound and negative controls (blanks) are reaction mixtures containing no kinase. The kinase reaction is stopped by addition of 60 μL IMAP progressive binding reagent (Catalog #R7284) diluted 400-fold in 1× Binding buffer A. After 30 min of incubation at room temperature, the plates are read for fluorescence polarization on Analyst Plate Reader using Ex 485 nm, Em 530 nm, and FL 505 dichroic minor. The mP signals are converted to percent of control (POC) values using the formula: POC=100*(Signal−BCTRL)÷(PCTRL−BCTRL)
Where Signal is the test well signal, BCTRL is the average of background (negative control) well signals on the plate and PCTRL is the average of positive control well signals on the plate. For the concentration-responsive compounds, POC as a function of test compound concentration is fitted to a 4-parameter logistic equation of the form: Y=A+(B−A)/[1+(x/C)D]
Where A, B, C, and D are fitted parameters (parameter B is fixed at zero POC), and x and y are the independent and dependent variables, respectively. The IC50 is determined as the inflection point parameter, C.
Target sequence in this assay (O75116 1-543, species assumed): as the sequence (O75116 1-543) above

SMILES	IC50 (ROCKII (1-543) [1]) [nM]	IC50 (ROCKII (1-543) [2]) [nM]
CN1CCc2ccc(NC(=O)c3cccc(CNC(=O)c4cccc(-n5ccnc5)c4)c3)cc2C1 [compound 186]	14.5	–
CCN1C(=O)CSc2ccc(C(=O)NCc3cccc(C(=O)Nc4ccc5c(c4)CN(C)CC5)c3)cc21 [compound 210]	86	–
CCn1c(C(=O)NCc2cccc(C(=O)Nc3ccc4c(c3)CN(C)CC4)c2)cc2cc(C#N)ccc21 [compound 102]	47	–
CN1CCc2ccc(NC(=O)c3cccc(CNC(=O)c4cc(-c5cccnc5)[nH]n4)c3)cc2C1 [compound 188]	91.5	–
CN1CCc2ccc(NC(=O)c3cccc(CNC(=O)C4=NC5=CC=NC(=O)C5C=C4)c3)cc2C1 (stereo not shown) [compound 122]	27.5	–
CN1CCc2ccc(NC(=O)c3cccc(CNC(=O)c4ccc5c(c4)OCC(=O)N5)c3)cc2C1 [compound 182]	81	–
Cc1nc2cnccc2n1-c1ccc(C(=O)NCc2cccc(C(=O)Nc3ccc4c(c3)CN(C)CC4)c2)cc1 [compound 198]	38	–
CN1CCc2ccc(NC(=O)c3cccc(CNC(=O)c4ccc(-c5ccc(N)nc5)s4)c3)cc2C1 [compound 177]	68	–
Cc1nnnn1-c1ccc(C(=O)NCc2cccc(C(=O)Nc3ccc4c(c3)CN(C)CC4)c2)cc1 [compound 37]	43.5	–
N[C@@H]1CCc2nc(NC(=O)c3cccc(CNC(=O)c4ccc(-c5csnn5)cc4)c3)sc2C1 [compound 24]	14.3	–
CN1CCc2ccc(NC(=O)c3cccc(CNC(=O)c4ccc(-c5ccn[nH]5)cc4)c3)cc2C1 [compound 179]	6.6	34
CN1CCc2ccc(NC(=O)c3cccc(CNC(=O)c4ccc(-c5cc[nH]n5)cc4)c3)cc2C1 [compound 155]	8.1	47
CN1CCc2ccc(NC(=O)c3cccc(CNC(=O)c4csc(-c5cccnc5)n4)c3)cc2C1 [compound 27]	9.8	45
Cc1ncc(-c2ccc(C(=O)NCc3cccc(C(=O)Nc4nc5c(s4)CN(C)CC5)c3)s2)o1 [compound 116]	14.5	–
CN1CCc2nc(NC(=O)c3cccc(CNC(=O)c4ccc(-c5cccnc5)s4)c3)sc2C1 [compound 110]	15.5	–
CN1CCc2ccc(NC(=O)c3cccc(CNC(=O)c4cn5cc(C#N)ccc5n4)c3)cc2C1 [compound 48]	35.5	–
CN1CCc2ccc(NC(=O)c3cccc(CNC(=O)c4ccc5c(c4)CCC(=O)N5)c3)cc2C1 [compound 184]	18	–
Cc1ncc(-c2ccc(C(=O)NCc3cccc(C(=O)Nc4ccc5c(c4)CN(C)CC5)c3)s2)o1 [compound 68]	64.2	–
CN1CCc2ccc(NC(=O)c3cccc(CNC(=O)c4cccc(-c5cccnc5)c4)c3)cc2C1 [compound 53]	28	–
CN1CCc2ccc(NC(=O)c3cccc(CNC(=O)c4csc(-c5ccncc5)n4)c3)cc2C1 [compound 33]	33	–
CN1CCc2ccc(NC(=O)c3cccc(CNC(=O)c4ccc5[nH]c(=O)ccc5c4)c3)cc2C1 [compound 175]	22.5	–
CCn1c(C(=O)NCc2cccc(C(=O)Nc3ccc4c(c3)CN(C)CC4)c2)cc2ccc(C#N)cc21 [compound 118]	24	–
CN1CCc2ccc(NC(=O)c3cccc(CNC(=O)c4cn5ccc(C#N)cc5n4)c3)cc2C1 [compound 18]	19.3	–
CN1CCc2nc(NC(=O)c3cccc(CNC(=O)c4cn5cc(C#N)ccc5n4)c3)sc2C1 [compound 88]	45.7	–
CN1CCc2ccc(NC(=O)c3cccc(CNC(=O)c4ccc(-c5nnco5)cc4)c3)cc2C1 [compound 145]	49.3	–
CN1CCc2ccc(NC(=O)c3cccc(CNC(=O)c4ccc(-c5cccnc5)s4)c3)cc2C1 [compound 62, 5-pyridin-3-yl-thiophene-2-carboxylic acid 3-(2-methyl-1,2,3,4-tetrahydro-isoquinolin-7-ylcarbamoyl)-benzylamide]	18.5	–
CN1CCc2ccc(NC(=O)c3cccc(CNC(=O)c4cc5cccc(O)c5cc4O)c3)cc2C1 [compound 133]	80	–
CN1CCc2ccc(NC(=O)c3cccc(CNC(=O)c4cccc(-c5ccncc5)c4)c3)cc2C1 [compound 69]	44.5	–

Now those with a lower IC50 (ROCKII (1-543) [1]), led by results:

IC50 (ROCKII (1-543) [1]) [nM]	IC50 (ROCKII (1-543) [2]) [nM]	SMILES
6	9.8	Cc1nnnn1-c1ccc(C(=O)NCc2cccc(C(=O)Nc3nc4c(s3)CN(C)CC4)c2)cc1 [compound 8]
5.9	25	CN1CCc2ccc(NC(=O)c3cccc(CNC(=O)c4cn5cc(C(N)=O)ccc5n4)c3)cc2C1 [compound 21]
5.7	48	CN1CCc2ccc(NC(=O)c3cccc(CNC(=O)c4ccc(-n5cncn5)cc4)c3)cc2C1 [compound 178, 4-[1,2,4]triazol-1-yl-benzoic acid 3-(2-methyl-1,2,3,4-tetrahydro-isoquinolin-7-ylcarbamoyl)-benzylamide]
4.6	4.6	CN1CCc2ccc(NC(=O)c3cccc(CNC(=O)c4ccc(C5=CSNN5)cc4)c3)cc2C1 [compound 31]
3.8	12.2	CN1CCc2ccc(NC(=O)c3cccc(CNC(=O)c4cc5cc(C(N)=O)ccc5n4C)c3)cc2C1 [compound 96]
3	1.6	Cc1nccn1-c1ccc(C(=O)NCc2cccc(C(=O)Nc3ccc4c(c3)CN(C)CC4)c2)cc1 [compound 200]
2.6	4.35	Cc1cc(-c2ccc(C(=O)NCc3cccc(C(=O)Nc4nc5c(s4)CN(C)CC5)c3)cc2)ccn1 [compound 144, 3-[4-(2-picoline-4-yl)-benzamidomethyl-N-(5-methyl-4,5,6,7-tetrahydro-thiazolo[5,4-c]pyridin-2-yl)-benzamide]]
2.5	12	CN1CCc2nc(NC(=O)c3cccc(CNC(=O)c4cn5ccc(C#N)cc5n4)c3)sc2C1 [compound 66]
2.1	1.2	Cc1sc(-c2ccncc2)nc1C(=O)NCc1cccc(C(=O)Nc2nc3c(s2)CN(C)CC3)c1 [compound 58]
2	0.53	CN1CCc2nc(NC(=O)c3cccc(CNC(=O)c4cccc(-c5cn[nH]c5)c4)c3)sc2C1 [compound 6]
1.9	10	N[C@@H]1CCc2nc(NC(=O)c3cccc(CNC(=O)c4cccc(-c5cccnc5)c4)c3)sc2C1 [compound 40]
1.8	9.3	Cc1c(C(=O)NCc2cccc(C(=O)Nc3nc4c(s3)CN(C)CC4)c2)nnn1-c1nonc1N [compound 44]
1.8	4.9	CN1CCc2nc(NC(=O)c3cccc(CNC(=O)c4nnn(-c5nonc5N)c4-c4ccccc4)c3)sc2C1 [compound 46]
1.4	3	Cc1nnnn1-c1ccc(C(=O)NCc2cccc(C(=O)Nc3nc4c(s3)C[C@H](N)CC4)c2)cc1 [compound 36]
1.3	0.195	CN1CCc2ccc(NC(=O)c3cccc(CNC(=O)c4ccc(-c5ccncc5)cc4)c3)cc2C1 [compound 129]
1.2	1.4	Cc1nc(-c2ccncc2)sc1C(=O)NCc1cccc(C(=O)Nc2nc3c(s2)CN(C)CC3)c1 [compound 76]
1.2	2	N[C@H]1CCc2nc(NC(=O)c3cccc(CNC(=O)c4cccc(-c5cccnc5)c4)c3)sc2C1 [compound 42]
1.1	0.67	Cc1nnnn1-c1ccc(C(=O)NCc2cccc(C(=O)Nc3nc4c(s3)C[C@@H](N)CC4)c2)cc1 [compound 38]
